# Values joined by “and” are separate entries in the source; they are usually repeats but may differ in a detail not shown here. Identical values can stand only once.
# Tests used:
# [1] = test system: Caspase-3 activity in Jurkat cells; experiment: Caspase-3 activity assay in Jurkat cells; assay type: cell-based, human; details: EC50 concentration, 19 hours
# Description: Jurkat cells were plated at 2×10^6 cells/3 mL per well in a 6-well plate and incubated at 37° C., 5% (v/v) C02 and 95% (v/v) humidity. […] Bhalla, et al., Blood 82:3133 (1993). […] Cells treated with 0.25% DMSO served as the negative control. The cells were collected by centrifugation and the media removed. Cell pellets were processed for the Caspase-3 activity assay as described in the manufacturer's protocol (EnzChek Caspase-3 Assay Kit from Molecular Probes (E-13183; see Appendix G, which form a part of this application and is also available at hypertext transfer protocol on the worldwide web at “probes.com/media/pis/mp13183.pdf.”. In brief, cell pellets were lysed on ice, mixed with the EnzChek Caspase-3 components in a 96-well plate, and then incubated in the dark for 30 minutes prior to reading fluorescence of cleaved benzyloxycarbonyl-DEVD-AMC using a Packard Fusion with λex=485 nm and λem=530 nm filters. Protein concentrations for lysates were determined using the BCA Protein Assay Kit (Pierce) and these values were used for normalization.
# SK-MEL-28 melanoma cells = experiment: NCI screen, SK-MEL-28; assay type: cell-based; details: Homo sapiens, SK-MEL-28, read-out: LC50
# Description: A detailed description of the screening procedure can be found at hypertext transfer protocol (http://) “dtp.nci.nih.gov/branches/btb/ivclsp.html.”
# In brief, each of the 60 human tumor cell lines were grown in RPMI 1640 medium, supplemented with 5% fetal bovine serum and 2 mM L-glutamine. Cells were plated at their appropriate density in 96-well microtiter plates and incubated at 37° C., 5% CO2, 95% air and 100% relative humidity. […] Cells were incubated for an additional 48 hours and a sulforhodamine B protein assay was used to estimate cell viability or growth.
# HEK293 cells = experiment: Cell growth inhibition (resazurin, 48 hours), HEK293; assay type: cell-based; details: Table 2, HEK293, human embryonic kidney, read-out: EC50 (nM), mean ± SD
# [2] = Maximum Tolerated Dose (MTD) determination; assay type: in vivo, BALB/c mice
# Text: In vivo studies were designed to determine the MTD of Salinosporamide A when administered intravenously to female BALB/c mice.
# Animals were observed daily for clinical signs and were weighed individually twice weekly until the end of the experiment (maximum of 14 days after the last day of dosing).
# Solubility assessment = details: PBS, pH 7.4, aqueous buffer
# Text: (§1) These studies consisted of solubility assessment, LogD^7.4 determination and a preliminary screen to detect cytochrome P450 enzyme inhibition.
# LogD7.4 determination = details: pH 7.4
# Text: as §1
# CYP1A2 = CYP1A2 (Homo sapiens, UniProt P05177); experiment: Preliminary P450 inhibition screen, CYP1A2
# CYP1A2, sequence (P05177 whole entry): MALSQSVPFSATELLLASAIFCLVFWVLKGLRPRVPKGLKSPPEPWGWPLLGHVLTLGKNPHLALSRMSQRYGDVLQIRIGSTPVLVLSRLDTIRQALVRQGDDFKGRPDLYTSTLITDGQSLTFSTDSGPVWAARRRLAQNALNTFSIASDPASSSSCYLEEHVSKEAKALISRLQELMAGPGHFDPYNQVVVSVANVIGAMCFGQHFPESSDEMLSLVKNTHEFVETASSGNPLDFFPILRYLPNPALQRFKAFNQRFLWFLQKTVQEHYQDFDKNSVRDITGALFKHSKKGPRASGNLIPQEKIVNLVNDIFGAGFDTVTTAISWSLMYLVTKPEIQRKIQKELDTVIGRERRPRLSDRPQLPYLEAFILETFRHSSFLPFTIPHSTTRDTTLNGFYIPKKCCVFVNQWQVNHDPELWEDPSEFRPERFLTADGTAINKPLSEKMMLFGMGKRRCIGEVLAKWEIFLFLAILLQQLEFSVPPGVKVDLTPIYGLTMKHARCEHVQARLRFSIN
# Text: as §1
# CYP3A4 = CYP3A4 (Homo sapiens, UniProt P08684); experiment: Preliminary P450 inhibition screen, CYP3A4
# CYP3A4, sequence (P08684 whole entry): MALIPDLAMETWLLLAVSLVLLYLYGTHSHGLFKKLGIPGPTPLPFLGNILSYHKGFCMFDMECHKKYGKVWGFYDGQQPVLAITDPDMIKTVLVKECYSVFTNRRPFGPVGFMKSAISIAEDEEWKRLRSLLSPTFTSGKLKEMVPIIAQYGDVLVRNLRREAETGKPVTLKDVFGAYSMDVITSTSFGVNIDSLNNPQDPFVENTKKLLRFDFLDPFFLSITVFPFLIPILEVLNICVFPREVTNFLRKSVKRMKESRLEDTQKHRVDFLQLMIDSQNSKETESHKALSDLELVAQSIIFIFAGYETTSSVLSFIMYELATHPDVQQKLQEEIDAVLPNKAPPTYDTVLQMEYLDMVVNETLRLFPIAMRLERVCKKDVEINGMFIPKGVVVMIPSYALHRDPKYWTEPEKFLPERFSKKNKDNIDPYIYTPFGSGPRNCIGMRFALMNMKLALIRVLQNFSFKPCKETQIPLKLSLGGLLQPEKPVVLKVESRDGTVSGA
# Text: as §1
# CYP2D6 = CYP2D6 (Homo sapiens, UniProt P10635); experiment: Preliminary P450 inhibition screen, CYP2D6
# CYP2D6, sequence (P10635 whole entry): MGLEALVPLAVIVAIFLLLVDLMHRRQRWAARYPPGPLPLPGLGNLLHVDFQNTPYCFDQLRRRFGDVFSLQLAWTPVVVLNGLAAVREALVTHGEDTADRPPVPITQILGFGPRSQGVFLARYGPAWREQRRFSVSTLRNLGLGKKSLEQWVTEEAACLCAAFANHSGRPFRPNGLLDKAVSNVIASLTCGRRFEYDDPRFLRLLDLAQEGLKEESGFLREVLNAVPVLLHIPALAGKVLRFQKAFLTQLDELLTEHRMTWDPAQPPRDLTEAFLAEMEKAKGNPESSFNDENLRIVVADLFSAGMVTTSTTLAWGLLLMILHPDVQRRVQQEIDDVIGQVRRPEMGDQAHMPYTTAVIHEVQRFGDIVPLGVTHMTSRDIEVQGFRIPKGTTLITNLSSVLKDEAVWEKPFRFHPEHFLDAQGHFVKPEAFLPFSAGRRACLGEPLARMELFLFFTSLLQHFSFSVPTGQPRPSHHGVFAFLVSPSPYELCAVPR
# Text: as §1
# CYP2C19 = CYP2C19 (Homo sapiens, UniProt P33261); experiment: Preliminary P450 inhibition screen, CYP2C19
# CYP2C19, sequence (P33261 whole entry): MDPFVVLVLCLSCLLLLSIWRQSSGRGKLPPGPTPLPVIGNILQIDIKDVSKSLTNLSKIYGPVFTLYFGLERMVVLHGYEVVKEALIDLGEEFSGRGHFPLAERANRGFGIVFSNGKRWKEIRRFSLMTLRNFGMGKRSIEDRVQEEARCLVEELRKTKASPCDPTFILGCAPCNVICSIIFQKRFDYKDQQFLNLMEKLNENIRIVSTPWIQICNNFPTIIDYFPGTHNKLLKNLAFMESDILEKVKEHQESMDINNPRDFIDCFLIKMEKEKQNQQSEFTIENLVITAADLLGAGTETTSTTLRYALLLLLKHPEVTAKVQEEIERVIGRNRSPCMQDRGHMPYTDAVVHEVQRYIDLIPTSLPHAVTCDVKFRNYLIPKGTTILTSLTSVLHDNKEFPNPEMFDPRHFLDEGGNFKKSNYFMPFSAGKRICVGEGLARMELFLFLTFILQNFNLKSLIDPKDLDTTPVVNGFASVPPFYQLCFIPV
# Text: as §1
# [3] = molecular target: T1, chymotrypsin-like proteasome activity in packed whole blood lysate (Mus musculus, UniProt O55234); experiment: Whole blood proteasome activity (packed whole blood lysate, PWBL) of treated mice; assay type: in vivo
# T1 construct: The supernatant (Packed Whole Blood Lysate, PWBL) was transferred to a fresh tube; from tissue; host or cells: packed whole blood cells of Swiss-Webster mice, hypotonic lysate
# T1 sequence (O55234 60-264): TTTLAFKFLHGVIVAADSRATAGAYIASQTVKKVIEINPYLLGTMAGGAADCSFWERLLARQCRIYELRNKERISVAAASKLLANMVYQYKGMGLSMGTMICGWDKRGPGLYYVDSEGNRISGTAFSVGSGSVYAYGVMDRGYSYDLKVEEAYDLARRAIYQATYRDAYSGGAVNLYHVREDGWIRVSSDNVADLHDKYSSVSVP
# Description: In brief, frozen whole blood samples were thawed on ice for one hour, and resuspended in 700 μL of ice cold 5 mM EDTA, pH 8.0 in order to lyse the cells by hypotonic shock. This represents approximately 2-3 times the volume of the packed whole blood cells. Lysis was allowed to proceed for one hour, and the cellular debris was removed by centrifuigation at 14,000×g for 10 minutes. The supernatant (Packed Whole Blood Lysate, PWBL) was transferred to a fresh tube, and the pellet discarded. Protein concentration of the PWBL was determined by BCA assay (Pierce) using BSA as a standard.
# Proteasome activity was determined by measuring the hydrolysis of a fluorogenic substrate specific for the chymotrypsin-like activity of proteasomes (suc-LLVY-AMC, Bachem Cat. 1-1395). […] Hydrolysis of the substrate results in the release of free AMC, which was measured fluorometrically by using λex=390 nm and λem=460 nm. The rate of hydrolysis in this system is linear for at least one hour. The hydrolysis rate of each sample is then normalized to relative fluorescent units per milligram of protein (RFU/mg).
# The vehicle control consisted of 2% DMSO in 10% solutol. […] Packed whole blood cells were collected by centrifugation, washed with PBS, and re-centrifuged. All samples were stored at −80° C. prior to the evaluation of the proteasome activity. […]
# LPS-induced plasma TNF = experiment: Inhibition of in vivo LPS-induced TNF; details: 0.125 or […] i.v., 30 minutes post-LPS (2 mg/kg i.p.), mice
# Description: Male Swiss Webster mice (12/group weighing 20-25 g) were injected with LPS (2 mg/kg) by the i.p. route. […] Ninety minutes after LPS injection, the mice were anesthetized with Isoflurane and bled by cardiac puncture to obtain plasma. Remaining blood pellet was then resuspended in 500 μL of PBS to wash away residual serum proteins and centrifuged again. Supernatant was removed and blood pellet frozen for analysis of proteasome inhibition in packed whole blood lysate.
# Animals were dosed i.v. with 4 ml/kg. A vehicle control solution was also prepared by making the same 1:160 dilution with 100% DMSO into 10% solutol solution giving a final concentration of 9.375% solutol in water and 0.625% DMSO. Measurements of plasma TNF were performed using the Biosource mTNF Cytoset kit (Biosource Intl., Camarillo, Calif.; catalog #CMC3014) according to manufacturer's instructions. Samples were diluted 1:60 for the assay.
# [4] = test system: PARP and Pro-Caspase 3 cleavage in PC-3 cells; experiment: Cleavage of PARP and Pro-Caspase 3 (western blot), PC-3; assay type: cell-based, human; details: 100 nM, 0, 8 or 24 hours
# Description: Total protein lysates were made and 20 μg of the lysates were then resolved under reducing/denaturing conditions and blotted onto nitrocellulose. The blots were then probed with anti-PARP or anti-caspase 3 antibodies followed by stripping and reprobing with an anti-actin antibody.
# [5] = test system: LeTx-induced cytotoxicity of RAW264.7 cells
smiles,measurement,setting,value
"C[C@@]12OC(=O)[C@]1([C@@H](O)[C@@H]1C=CCCC1)NC(=O)[C@@H]2CCCl [Formula II-16, Salinosporamide A]",Caspase-3 activity,[1],activation of Caspase-3
same,CC50,SK-MEL-28 melanoma cells,< 10 nM
same,EC50,HEK293 cells,47 nM
same,behavioral changes during the course of the experiment,[2]; 0.01 to 0.5 mg/kg i.v.,No behavioral changes were noted
same,dose well tolerated when administered daily for five consecutive days,"[2]; i.v., qdx5, female BALB/c mice",up to 0.1 mg/kg
same,single intravenous dose tolerated,"[2]; i.v., single dose (qdx1), female BALB/c mice",up to 0.25 mg/kg
same,solubility,Solubility assessment,9.6 µM and 3 µg/mL
same,LogD7.4,LogD7.4 determination,2.4
same,inhibition at 10 µM,CYP1A2,3%
same,inhibition at 10 µM,CYP3A4,6%
same,inhibition at 10 µM,CYP2D6,19%
same,inhibition at 10 µM,CYP2C19,22%
same,proteasomal activity in PWBL,"[3]; male Swiss-Webster mice, i.v. or oral, 90 minutes after administration (FIG. 40)",profound decrease in proteasomal activity in PWBL
same,inhibition at […],"[3]; mouse, iv, 0.25 mg/kg i.v., mice, read-out: ex vivo proteasome inhibition in packed whole blood",94 ± 3%
same,reduction of LPS-induced plasma TNF levels,LPS-induced plasma TNF,approximately 65%
same,cleavage of PARP,[4],noticeable at 24 hours
same,cleavage of Pro-Caspase 3,[4],not detected
same,"cell-viability, compound + LeTx",[5],82%
same,increase in the viability of LeTx-treated cells compared to LeTx treatment alone,[5],10 fold
same,EC50,"[5]; read-out: average EC50, viability of LeTx-treated cells",3.6 nM

# Reference: US20050049294A1, “Methods of using [3.2.0] heterocyclic compounds and analogs thereof” (priority 2003, published 2005)
